Source: US12071424B2, “IRE1 small molecule inhibitors” (Cornell University, priority 2017, dated 2024)

Target: T1, IRE1a (Homo sapiens, UniProt O75460)
T1 construct: purchased SignalChem
Test: In vitro FRET assay (IRE1a cleavage of XBP1 RNA probe)
Type: biochemical
Settings: 2 nM SignalChem IRE1a, tested as Formic Acid Salt (37: HCl Salt)
Protocol: In vitro FRET assay was performed to evaluate the ability of select compounds to inhibit IRE1, the results of which are summarized in Table 3. To perform the in vitro FRET assay, 1× complete assay buffer (CAB: […], 50 mM sodium citrate pH 7.15, 1 mM magnesium acetate, 0.02% tween 20) was used to SignalChem IRE1a protein to a final concentration of 2 nM. Selected compounds were serially diluted with DMSO in a non-binding black 384-well plate for a total of 15 ul in each well. 2 ul of the serially diluted compound or DMSO control were then added to new wells containing 98 ul of 1× CAB, for a total volume of 100 ul, 10 ul of which were then transferred to wells of a new plate. 5 ul of the diluted IRE1a was then added to each well. 5 ul of a […] XBP1 RNA probe was then added to each well. Fluorescence was then read over 30 minutes in kinetic mode (485/515 nm).
Two RNA probes were used, XBP1 wildtype (SEQ ID NO: 2) which is able to be spliced by active IRE1a or XBP1 mutant (SEQ ID NO: 3) which is unable to be spliced. Each probe contained a 5′ 6-FAM modification and a 3′ IOWA black FQ modification. […]

T1 sequence (O75460 19-977): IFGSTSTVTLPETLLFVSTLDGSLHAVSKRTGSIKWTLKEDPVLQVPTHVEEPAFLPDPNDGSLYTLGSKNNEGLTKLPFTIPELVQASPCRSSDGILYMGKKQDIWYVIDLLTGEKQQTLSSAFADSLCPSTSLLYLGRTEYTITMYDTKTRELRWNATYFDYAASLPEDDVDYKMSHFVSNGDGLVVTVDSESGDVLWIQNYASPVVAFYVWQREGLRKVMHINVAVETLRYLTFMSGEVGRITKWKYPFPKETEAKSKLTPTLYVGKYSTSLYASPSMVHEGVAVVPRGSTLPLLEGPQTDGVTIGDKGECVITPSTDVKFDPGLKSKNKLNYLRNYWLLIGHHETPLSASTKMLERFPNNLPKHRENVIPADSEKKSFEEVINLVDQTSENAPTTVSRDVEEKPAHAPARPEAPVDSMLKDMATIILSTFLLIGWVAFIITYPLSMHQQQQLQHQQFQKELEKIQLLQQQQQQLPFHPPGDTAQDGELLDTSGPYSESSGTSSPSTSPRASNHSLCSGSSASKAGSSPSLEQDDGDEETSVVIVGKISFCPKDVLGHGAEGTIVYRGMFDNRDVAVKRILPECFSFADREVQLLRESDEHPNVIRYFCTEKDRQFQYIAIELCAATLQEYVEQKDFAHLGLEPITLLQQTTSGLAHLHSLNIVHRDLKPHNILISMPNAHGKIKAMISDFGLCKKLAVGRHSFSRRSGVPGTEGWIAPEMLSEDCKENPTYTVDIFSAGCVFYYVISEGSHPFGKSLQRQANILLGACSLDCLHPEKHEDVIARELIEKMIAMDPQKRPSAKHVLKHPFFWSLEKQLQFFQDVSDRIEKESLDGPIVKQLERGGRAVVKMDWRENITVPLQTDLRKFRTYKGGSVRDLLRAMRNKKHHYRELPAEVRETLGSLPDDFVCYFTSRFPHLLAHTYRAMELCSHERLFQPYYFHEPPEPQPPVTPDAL

Row | IC50 | SMILES
1 | 0.05 to 0.1 µM | Cc1cc(N(C)S(=O)(=O)c2ccccc2Cl)ccc1-c1cc(O)c2nc(N[C@H]3CC[C@H](N)CC3)ncc2c1 [Compound 30, N-(4-(2-(((1r,4r)-4-aminocyclohexyl)amino)-8-hydroxyquinazolin-6-yl)-3-methylphenyl)-2-chloro-N-methylbenzene-sulfonamide]
2 | 0.1 to 10 µM | CCc1cc(-c2ccc(N(C)S(=O)(=O)c3ccccc3Cl)cc2C)cc2cnc(N[C@H]3CC[C@H](N)CC3)nc12 [Compound 31, N-(4-(2-(((1r,4r)-4-aminocyclohexyl)amino)-8-ethylquinazolin-6-yl)-3-methylphenyl)-2-chloro-N-methylbenzene-sulfonamide]
3 | ≤ 0.005 µM | COc1cc(-c2ccc(NS(=O)(=O)c3ccccc3Cl)cc2C)cc2cnc(N[C@H]3CC[C@H](N)CC3)nc12 [Compound 36, N-(4-(2-(((1r,4r)-4-aminocyclohexyl)amino)-8-methoxyquinazolin-6-yl)-3-methylphenyl)-2-chlorobenzene-sulfonamide]
4 | ≤ 0.005 µM | CCc1cc(-c2sc(NS(=O)(=O)c3ccccc3Cl)nc2C)cc2cnc(N[C@H]3CC[C@H](N)CC3)nc12 [Compound 38]
5 | ≤ 0.005 µM | CCc1cc(-c2cnc(NS(=O)(=O)c3ccccc3Cl)nc2)cc2cnc(N[C@H]3CC[C@H](N)CC3)nc12 [Compound 39, N-(5-(2-(((1r,4r)-4-aminocyclohexyl)amino)-8-ethylquinazolin-6-yl)pyrimidin-2-yl)-2-chlorobenzene-sulfonamide]
6 | ≤ 0.005 µM | CCc1cc(-c2cnc(NS(=O)(=O)c3ccccc3Cl)s2)cc2cnc(N[C@H]3CC[C@H](N)CC3)nc12 [Compound 41]
7 | ≤ 0.005 µM | CCc1cc(-c2cc(F)c(NS(=O)(=O)c3ccccc3Cl)c(F)c2)cc2cnc(N[C@H]3CC[C@H](N)CC3)nc12 [Compound 63, N-(4-(2-(((1r,4r)-4-aminocyclohexyl)amino)-8-ethylquinazolin-6-yl)-2,6-difluorophenyl)-2-chlorobenzene-sulfonamide]
8 | 0.05 to 0.1 µM | CCc1cc(-c2ccc(NS(=O)(=O)c3ccccc3Cl)nc2C)cc2cnc(N[C@H]3CC[C@H](N(C)CC(F)(F)F)CC3)nc12 [Compound 126, 2-chloro-N-(5-(8-ethyl-2-(((1r,4r)-4-(methyl(2,2,2-trifluoroethyl)amino)cyclohexyl)amino)quinazolin-6-yl)-6-methylpyridin-2-yl)benzenesulfonamide]
9 | 0.005 to 0.05 µM | CCc1cc(-c2ccc(NS(=O)(=O)c3ccccc3Cl)nc2OC)cc2cnc(N[C@H]3CC[C@@](C)(N(C)C)CC3)nc12 [Compound 143, 2-chloro-N-(5-(2-(((1s,4s)-4-(dimethylamino)-4-methylcyclohexyl)amino)-8-ethylquinazolin-6-yl)-6-methoxypyridin-2-yl)benzenesulfonamide]
10 | 0.1 to 10 µM | Cc1nc(NS(=O)(=O)c2ccccc2Cl)c(F)cc1-c1cc(F)c2nc(N[C@H]3CC[C@H](N(C)C)CC3)ncc2c1 [Compound 156, 2-chloro-N-(5-(2-(((1r,4r)-4-(dimethylamino)cyclohexyl)amino)-8-fluoroquinazolin-6-yl)-3-fluoro-6-methylpyridin-2-yl)benzenesulfonamide]

The next lines start with the molecule.

Row | SMILES | IC50
11 | CC(C)c1cc(-c2cc(NS(=O)(=O)c3ccccc3Cl)nn2C)cc2cnc(N[C@H]3CC[C@H](N)CC3)nc12 [Compound 40, N-(5-(2-(((1r,4r) 4-aminocyclohexyl)amino)-8-isopropylquiazolin-6-yl)-1-methyl-1H-pyrazol-3-yl)-2-chlorobenzene-sulfonamide] | ≤ 0.005 µM
12 | CCc1cc(-c2cc(F)c(NS(=O)(=O)c3ccccc3Cl)cc2OC)cc2cnc(N[C@H]3CC[C@H](N)CC3)nc12 [Compound 42, N-(4-(2-(((1r,4r)-4-aminocyclohexyl)amino)-8-ethylquinazolin-6-yl)-2-fluoro-5-methoxyphenyl)-2-chlorobenzene-sulfonamide] | ≤ 0.005 µM
13 | CCc1cc(-n2cc(NS(=O)(=O)c3ccccc3Cl)cn2)cc2cnc(N[C@H]3CC[C@H](N)CC3)nc12 [Compound 43, N-(1-(2-(((1r,4r)-4-aminocyclohexyl)amino)-8-ethylquinazolin-6-yl)-1H-pyrazol-4-yl)-2-chlorobenzene-sulfonamide] | ≤ 0.005 µM
14 | COc1cc(-c2cc(NS(=O)(=O)c3ccccc3Cl)nn2C)cc2cnc(N[C@H]3CC[C@H](N)CC3)nc12 [Compound 45, N-(5-(2-(((1r,4r)-4-aminocyclohexyl)amino)-8-methoxyquinazolin-6-yl)-1-methyl-1H-pyrazol-3-yl)-2-chlorobenzene-sulfonamide] | 0.05 to 0.1 µM
15 | N[C@H]1CC[C@H](Nc2ncc3cc(-c4ccc(NS(=O)(=O)c5ccccc5Cl)nn4)ccc3n2)CC1 [Compound 49, N-(6-(2-(((1r,4r)-4-aminocyclohexyl)amino)quinazolin-6-yl)pyridazin-3-yl)-2-chlorobenzene-sulfonamide] | ≤ 0.005 µM
16 | N[C@H]1CC[C@H](Nc2ncc3cc(-c4ccc(NS(=O)(=O)c5ccccc5Cl)c(F)c4)ccc3n2)CC1 [Compound 50, N-(4-(2-(((1r,4r)-4-aminocyclohexyl)amino)quinazolin-6-yl)-2-fluorophenyl)-2-chlorobenzene-sulfonamide] | ≤ 0.005 µM
17 | CCc1cc(NS(=O)(=O)c2ccccc2Cl)nnc1-c1cc(CC)c2nc(N[C@H]3CC[C@H](N)CC3)ncc2c1 [Compound 96, N-(6-(2-(((1r,4r)-4-aminocyclohexyl)amino)-8-ethylquinazolin-6-yl)-5-ethylpyridazin-3-yl)-2-chlorobenzenesulfonamide] | ≤ 0.005 µM
18 | COc1nc(NS(=O)(=O)c2ccccc2Cl)ccc1-c1cc(C)c2nc(N[C@H]3CC[C@@H](N(C)C)CC3)ncc2c1 [Compound 139, 2-chloro-N-(5-(2-(((1s,4s)-4-(dimethylamino)cyclohexyl)amino)-8-methylquinazolin-6-yl)-6-methoxypyridin-2-yl)benzenesulfonamide] | 0.005 to 0.05 µM
19 | CCc1cc(-c2cc(F)c(NS(=O)(=O)c3ccccc3Cl)nc2OC)cc2cnc(N[C@H]3CC[C@@H](N(C)C)CC3)nc12 [Compound 142, 2-chloro-N-(5-(2-(((1s,4s)-4-(dimethylamino)cyclohexyl)amino)-8-ethylquinazolin-6-yl)-3-fluoro-6-methoxypyridin-2-yl)benzenesulfonamide] | 0.005 to 0.05 µM
20 | CCc1cc(-c2cc(F)c(NS(=O)(=O)c3ccccc3Cl)nc2OC)cc2cnc(N[C@H]3CC[C@@](C)(N(C)C)CC3)nc12 [Compound 144, 2-chloro-N-(5-(2-(((1s,4s)-4-(dimethylamino)-4-methylcyclohexyl)amino)-8-ethylquinazolin-6-yl)-3-fluoro-6-methoxypyridin-2-yl)benzenesulfonamide] | 0.05 to 0.1 µM
21 | COc1nc(NS(=O)(=O)c2ccccc2Cl)c(F)cc1-c1cc(C)c2nc(N[C@H]3CC[C@@H](N(C)C)CC3)ncc2c1 [Compound 147, 2-chloro-N-(5-(2-(((1s,4s)-4-(dimethylamino)cyclohexyl)amino)-8-methylquinazolin-6-yl)-3-fluoro-6-methoxypyridin-2-yl)benzenesulfonamide] | 0.005 to 0.05 µM
